A short description of experiment [1]: Inhibitory activity towards HIV-I regulatory protein Rev and its viral RNA-binding site, Rev response element (RRE) binding.
The subject of experiment [2] is M109. Briefly: The compound was tested for its cytotoxicity on the murine tumor cell line M109. Format: functional, cell-based. The settings on record: Mus musculus.

SMILES strings stand for the structures.

With `CCC(C)CC(C)/C=C(/C=C(C)/C=C/C=C/C=C/C=C/C=C/c1cc2c(c(=O)o1)[C@H](O)[C@@H](O)[C@H](C(O)C(O)CO)O2)C(=O)O` (some centres not stated), the IC50 in experiment [1] worked out at 3.6 µM; in experiment [2], 82 µM.

In general, IC50 refers to the midpoint of a concentration-inhibition curve.

(Values after ChEMBL document CHEMBL1130522, “Orevactaene,1 a novel binding inhibitor of HIV-1 rev protein to Rev response element (RRE) from Epicoccum nigrum WC47880” (Bioorg Med Chem Lett, 1997).)
